This is an account of results in patent US7687465B2, “Therapeutic cancer vaccine” (Kraeftens Bekaempelse, priority 2003, dated 2010).

The target in assay [1] is T1, HLA-A2 (Homo sapiens, UniProt P04439, D140Y/D185E/D98H/E176V/E277Q/G131W/G231S/I119V/I121R/I166T/I218V/L300P/L318F/N151K/N90K/P208A/P217A/Q86G/Q94H/R138H/R169H/T345S).
T1 construct: stabilization of the class 1 molecule after loading of peptide to the peptide transporter deficient cell line T2; endogenous in cells; host or cells: T2 (TAP-deficient human cell line), metabolically labelled with [35S]-methionine and lysed
The assay can be described thus: Assembly assay for peptide binding to class I MHC molecules. Particulars: concentration of the peptide required for half maximal binding to HLA-A2; for EC50: read-out: C50. Here is the method: Assembly assays for binding of the synthetic peptides to class I MHC molecules metabolically labeled with [^35S]-methionine can be carried out as described below. It will be appreciated by the person skilled in the art that the protocol may be adopted for any peptide and any class I MHC molecule.
Briefly, TAP deficient cells were metabolically labeled with [^35S]-methionine (Amersham, Freiburg, Germany). The cells were lyzed in 0.5 ml lysis buffer (150 mM NaCl, 50 mM TrisHCl, 0.5% NP-40 (Fluka, Buchs, Switzerland), 5 mM EDTA, pH 7.5) with 0.5% Mega-9 (Sigma, St. Louis, USA) in the presence of protease inhibitors (2 mM PMSF, 5 mM iodoacetamide, 2 μg/ml pepstatin, 2 μg/ml leupeptin) with or without synthetic peptide (for a list of positive control peptides, see Table 2).
After 20 min of incubation, the cell nuclei were removed by centrifugation (5 min, 10,000 g) and 50 μl (10% v/v) freshly washed Staphylococcus aureus organisms (Pansorbin, Calbiochem, Nottingham, UK). The next day Pansorbin was removed by centrifugation (12 min, 16,000 g) and the appropriate monoclonal antibody was added at a final concentration of 10 μg/ml, incubated for 90 min, followed by addition of protein A-Sepharose (75 μl, 10% v/v) and incubation for 1 h. The beads were washed 4 times and stored at −20° C. until analysis by electrophoresis.
In the case of an assembly assay with the HLA class I-specific conformation-dependent monoclonal antibody W6/32, samples were eluted in reducing buffer (9.5 M urea, 2% NP-40, 5% 2-mercaptoethanol, 2% Ampholines, pH range 3.5-9.5 (Pharmacia Biotech, Uppsala, Sweden)) and focused for 16 h at 880 V on 5.5% polyacrylamide isoelectric focusing (IEF) gels^20,39.
Samples from assembly assays with allele-specific antibodies were eluted by boiling (5 min) in SDS reducing buffer (50 mM TrisHCl pH 6.8, 2% SDS, 5% 2-mercaptoethanol, 10% glycerol, 2.5% bromophenol blue) and electrophorezed on 12% SDS-PAGE gels (1 h at 200 V). All gels were fixed in 10% acetic acid with 5% methanol and dried onto 3 MM paper (Whatman, Maidstone, UK). MHC heavy chain bands were quantified using the Imagequant Phosphorimager program (Molecular Dynamics, Sunnyvale, Calif., USA). The intensity of the band is directly related to the amount of peptide-bound class I MHC complex recovered during the assay. C50 value (μM) as the concentration of the peptide required for half maximal binding to MHC may thus be determined. The binding affinities of the analysed peptides are determined according to their efficiency of stabilising the HLA class I molecules. The binding affinity is represented as the peptide concentration required to reach half-maximal stabilistation of appropriate HLA-molecule.
Assembly assays for binding of the synthetic peptides to class I MHC molecules metabolically labeled with [^35S]-methionine were carried out as described^15,16. The assembly assay is based on stabilization of the class 1 molecule after loading of peptide to the peptide transporter deficient cell line T2. Subsequently correctly folded stable MHC heavy chains are immunoprecipitated using conformation-dependent antibodies. After IEF electrophoresis, gels were exposed to phosphorImager screens, and peptide binding was quantitated using the Imagequant PhosphorImager program (Molecular Dynamics, Sunnyvale, Calif.).

For assay [2], the system named is peripheral blood T cells or TIL from melanoma patients. The assay can be described thus: ELISPOT IFN-γ secretion assay, T-cell responses against HLA-A2 binding ML-IAP peptides. As to conditions: for strength of spontaneous CTL response: TIL and PBL from melanoma patients, in words; for TIL samples in which a response against the peptide was detected: TIL from melanoma patients (n=22); for TIL samples in which a response against the peptide was detected / PBL samples in which a response against the peptide was detected: stimulated once in vitro with peptide, number of samples; for PBL samples in which a response against the peptide was detected: peripheral blood T cells from melanoma patients (n=7). The format is cell-based, human. On the procedure: Peripheral blood was obtained from melanoma patients before vaccination and subsequent to a series of vaccinations. In order to identify peptide-specific T-cell precursors, peripheral blood lymphocytes (PBL) were used directly in the ELISPOT (designated direct ELISPOT). However, to extend the sensitivity of the ELISPOT assay, PBL were stimulated once in vitro prior to analysis^17,18. At day 0, PBL or crushed lymph nodes were thawed and plated in 2 ml/well at a concentration of 2×10^6 cells in 24-well plates (Nunc, Denmark) in X-vivo medium (Bio Whittaker, Walkersville, Md.), 5% heat-inactivated human serum, and 2 mM of L-glutamine in the presence of 10 μM of peptide. Two days later 20 IU/ml recombinant interleukin-2 (IL-2) (Chiron, Ratingen, Germany) was added to the cultures. The cultured cells were tested for reactivity in the ELISPOT on day 8.
The ELISPOT assay used to quantify peptide epitope specific interferon-7 releasing effector cells was adapted from Lalvani et al.^37, and Scheibenbogen et al.^38. Briefly, nitrocellulose bottomed 96-well plates (MultiScreen MAIP N45, Millipore) were coated overnight at 4° C. with 7.5 μg/ml of anti-IFN-γ antibody (1-D1K, Mabtech, Sweden) in 75 μl sterile PBS. Subsequently, the wells were washed six times with PBS, and non-specific binding were blocked by X-vivo medium for 2 hours at 37° C. Freshly isolated PBL or cells, which had been stimulated once in vitro, were added in duplicates at different cell concentrations (from 10^6 to 10^5 cells per well for non-stimulated PBL, and from 3×10^5-3×10^4 cells per well for PBL which had been stimulated once in vitro), in 100 μl X-vivo medium. Peptides were then added to each well to a final concentration of 2 μM and incubated overnight at 37° C.
The following day, media was discarded and the wells were washed (six times) with PBS containing 0.05% Tween (PBS/Tw) before the addition of biotinylated secondary antibody (7-B6-1-Biotin, Mabtech) at 0.5 μg/ml in 75 μl PBS containing 1% BSA and 0.02% NaN3 (PBS/BSA). The plates were incubated at room temperature for 2 hours. The wells were washed (six times) with PBS/Tw. Then 75 μl of Avidin-enzyme conjugate (AP-Avidin, Calbiochem) diluted 1:2000 in PBS/BSA were added to each well and incubated for 1 hour. The enzyme substrate NBT/BCIP was prepared freshly according to the manufacturers' instructions (Gibco, code 18280-016) and 75 μl were added to each well and incubated for 5-10 min. The reaction was terminated by washing with tap-water upon the emergence of dark purple spots. The spots were then counted using the AlphaImager System (Alpha Innotech, San Leandro, Calif., USA) and the peptide specific CTL frequency could be calculated as the number of spot-forming cells.
To extend the sensitivity of the ELISPOT assay, PBL were stimulated once in vitro prior to analysis^17,18. At day 0, PBL or crushed lymph nodes were thawed and plated in 2 ml/well at a concentration of 2×10^6 cells in 24-well plates (Nunc, Denmark) in X-vivo medium (Bio Whittaker, Walkersville, Md.), 5% heat-inactivated human serum, and 2 mM of L-glutamine in the presence of 10 μM of peptide. Two days later 20 IU/ml recombinant interleukin-2 (IL-2) (Chiron, Ratingen, Germany) was added to the cultures. The cultured cells were tested for reactivity in the ELISPOT on day 12.
The ELISPOT assay used to quantify peptide epitope-specific interferon-γ-releasing effector cells was performed as described previously^19. Briefly, nitrocellulose bottomed 96-well plates (MultiScreen MAIP N45, Millipore, Hedehusene, Denmark) were coated with anti-IFN-7 antibody (1-D1K, Mabtech, Nacka, Sweden). The wells were washed, blocked by X-vivo medium, and cells were added in duplicates at different cell concentrations. Peptides were then added to each well and the plates were incubated overnight. The following day, media was discarded and the wells were washed prior to addition of biotinylated secondary antibody (7-B6-1-Biotin, Mabtech). […]

Ends that are not written are not given here.

For `CC(C)C[C@H](NC(=O)[C@@H](N)CC(C)C)C(=O)N[C@@H](CCCNC(=N)N)C(=O)N[C@@H](CO)C(=O)N[C@@H](CCCCN)C(=O)NCC(=O)N[C@@H](CCCNC(=N)N)C(=O)N[C@@H](CC(=O)O)C(=O)N[C@@H](Cc1ccccc1)C(=O)N[C@H](C(=O)O)C(C)C` [ML-IAP154], the EC50 in assay [1] amounted to 10 µM. For `CC[C@H](C)[C@H](NC(=O)[C@@H](N)CCC(N)=O)C(=O)N[C@@H](CC(C)C)C(=O)NCC(=O)N[C@@H](CCC(N)=O)C(=O)N[C@@H](CC(C)C)C(=O)N[C@@H](CCCNC(=N)N)C(=O)N1CCC[C@H]1C(=O)N[C@@H](CC(C)C)C(=O)O` [ML-IAP54], the EC50 in assay [1] was 1 µM.

On to `CSCC[C@H](NC(=O)CN)C(=O)NCC(=O)N[C@@H](CO)C(=O)N[C@@H](CCC(=O)O)C(=O)N[C@@H](CCC(=O)O)C(=O)N[C@@H](CC(C)C)C(=O)N[C@@H](CCCNC(=N)N)C(=O)N[C@@H](CC(C)C)C(=O)O` [ML-IAP83], for which the EC50 in assay [1] came to 30 µM. Same read-out and setting: next, `CC[C@H](C)[C@H](NC(=O)[C@@H]1CCCN1C(=O)[C@H](CS)NC(=O)[C@H](CC(C)C)NC(=O)[C@@H](N)CCC(N)=O)C(=O)N[C@@H](CS)C(=O)N[C@@H](CCCNC(=N)N)C(=O)N[C@@H](C)C(=O)N1CCC[C@H]1C(=O)N[C@H](C(=O)O)C(C)C` [ML-IAP280]: 20 µM.

For the compound SIVFVPCG [ML-IAP261], the “C50 (μM)” value in assay [1] (listed as MLIAP261) is on record as “did not bind”. Consider ELPTPRREV [ML-IAP200], for which, in assay [1] (listed as MLIAP200), the “C50 (μM)” value is reported as “did not bind”.

As for `CC(C)C[C@H](NC(=O)[C@@H](N)C(C)C)C(=O)N[C@@H](CCC(=O)O)C(=O)N1CCC[C@H]1C(=O)N1CCC[C@H]1C(=O)NCC(=O)N[C@@H](C)C(=O)N[C@@H](CCCNC(=N)N)C(=O)N[C@@H](CC(=O)O)C(=O)N[C@H](C(=O)O)C(C)C` [ML-IAP230], in assay [2], the “strength of spontaneous CTL response” value is given as “Weaker spontaneous responses”, the “TIL samples in which a response against the peptide was detected” value was “six” and the “PBL samples in which a response against the peptide was detected” value is “two”. Besides, in assay [1], the “C50 (μM)” value is on record as “not able to stabilize the HLA-A2 molecule” and the EC50 was greater than 100 µM. For `CC(C)C[C@H](NC(=O)CNC(=O)[C@H](CC(C)C)NC(=O)[C@@H](NC(=O)[C@@H]1CCCN1C(=O)[C@H](CO)NC(=O)CNC(=O)[C@H](CC(C)C)NC(=O)[C@@H](N)CO)C(C)C)C(=O)O` [ML-IAP34], in assay [1], the EC50 was found to be 1 µM. As to `CC(C)C[C@H](NC(=O)[C@@H]1CCCN1C(=O)[C@H](Cc1c[nH]c2ccccc12)NC(=O)[C@H](CC(=O)O)NC(=O)[C@H](Cc1ccc(O)cc1)NC(=O)[C@H](Cc1ccccc1)NC(=O)[C@H](CO)NC(=O)[C@H](C)NC(=O)[C@H](CC(C)C)NC(=O)[C@@H](N)CCCNC(=N)N)C(=O)O` [ML-IAP90], in assay [2], the “strength of spontaneous CTL response” value was “Weaker spontaneous responses”, the “TIL samples in which a response against the peptide was detected” value is reported as “seven” and the “PBL samples in which a response against the peptide was detected” value is “two”. Further, in assay [1], the EC50 amounted to 0.2 µM. With `CC(C)C[C@H](NC(=O)[C@H](CCC(=O)O)NC(=O)[C@@H]1CCCN1C(=O)[C@@H]1CCCN1C(=O)[C@@H](NC(=O)[C@H](CCC(=O)O)NC(=O)[C@H](C)NC(=O)[C@@H](NC(=O)[C@H](CC(C)C)NC(=O)[C@@H]1CCCN1)[C@@H](C)O)C(C)C)C(=O)O` [ML-IAP98], the EC50 in assay [1] was greater than 100 µM. Turning to `CC(C)C[C@H](NC(=O)[C@H](CCC(=O)O)NC(=O)[C@@H]1CCCN1C(=O)[C@@H]1CCCN1C(=O)[C@@H](NC(=O)[C@H](CCC(=O)O)NC(=O)[C@H](C)NC(=O)[C@@H](NC(=O)[C@@H](N)CC(C)C)[C@@H](C)O)C(C)C)C(=O)O` [ML-IAP99], the EC50 in assay [1] was found to be 0.9 µM.
